Columns and labels:
STHdh^Q109 cells [1] = assay: Cell viability analysis (CCK-8 assay) in a cell model of HD; format: cell-based, mice; conditions: 24 h, vs vehicle-treated cells
Excerpt: (§1) Conditionally immortalized wild-type STHdh^Q7 striatal neuronal progenitor cells expressing endogenous normal htt (referred to as wild-type striatal cells), and homozygous mutant STHdh^Q109 striatal neuronal progenitor cells from homozygous STHdh^Q109 knock-in mice expressing mutant htt with 109 glutamines (referred to as mutant striatal cells). STHdh^Q7 and STHdh^Q109 cells were generous gifts from Dr. Elena Cattaneo and Marta Valenza (Department of pharmacological sciences and center for stem cell research, University of Milano, Italy). These cells were maintained in an incubation chamber at 33° C. in Dulbecco's modified Eagle's medium supplemented with 10% fetal bovine serum.
STHdh^Q7 and STHdh^Q109 cells were treated with 5 or 10 μM Antcin H or vehicle (DMSO) for 24 h. STHdh^Q7 and STHdh^Q109 cells viability was quantified by the CCK-8 assay. The survival rate of the indicated cells was normalized to those survival rate of vehicle-treated STHdh^Q7 cells.
To investigate the neuroprotective potential of Antcin H in CNS disease, the present example used striatal cell line as an in vitro model of Huntington's disease. STHdh^Q109 cells carry the polyQ-expanded mouse gene Htt, which encodes 109 CAG repeats in the Htt gene. Compared with STHdh^Q109 cells, the control cell line (STHdh^Q7) only carry 7 copies of the CAG repeat. […]

STHdh^Q109 cells [2] = assay: Intracellular ROS analysis (CM-H2DCFDA) in a cell model of HD; format: cell-based, mice; conditions: 5 or 10 μM Antcin H, H2DCFDA staining
Excerpt: as §1
STHdh^Q7 and STHdh^Q109 cells were treated with 5 or 10 μM Antcin H or vehicle (DMSO) in the presence of 10 μM intracellular ROS indicator fluorescent probe CM-H2DCFDA (Molecular Probes, Inc., Eugene, Oregon, USA) for 1 h. Intracellular ROS (Reactive Oxygen Species) levels were measured by detecting the fluorescence intensity (Excitation/Emission: 488 nm/510 nm) using a fluorescence plate reader (Fluoroskan Ascent; Thermo Electron Corporation, Woburn, MA, USA). J774A.1 macrophages were treated with or without 1 μg/ml LPS for 5 h, followed by treated with or without 50 μM Antcin H for 0.5 h. […] The levels of intracellular ROS were measured by CM-H2DCFDA staining and detected by a fluorescence plate reader. […]

R6/2 mice [3] = assay: Disease progression of R6/2 transgenic mouse model of HD (body weight, rotarod, survival, clasping); format: in vivo; conditions: 10 mg/kg oral gavage daily
Experimental: R6/2 mice or wild-type mice were treated with Antcin H (10 mg/kg of body weight) or vehicle by oral gavage daily starting from the age of 7 weeks to the age of 12 weeks. Mice were tested on a Rotarod apparatus three times a week. Motor coordination was assessed using a rotarod apparatus assay (UGO BASILE, Comerio, Italy) at a constant speed (12 rpm) over a period of 2 min. The body weight and the lifespan were monitored weekly.
To investigate the therapeutic potential of Antcin H in the pathogenesis of Huntington's disease, R6/2 mice were used as an animal model of HD. R6/2 mice or wild-type mice were treated with Antcin H (10 mg/kg of body weight) or vehicle by oral gavage daily starting from the age of 7 weeks to the age of 12 weeks. […] WT-Vehicle: n=10; WT-AH: n=10; R6/2-vehicle: n=8; R6/2-AH: n=10. The data are presented as the mean±SEM. Label “a” in chart means p<0.05, between WT and R6/2 mice. Label “b” in chart means p<0.05 vs. R6/2-vehicle.

R6/2 mice [4] = assay: Neuronal death in R6/2 mice brain (NeuN immunofluorescence staining, Western blotting); format: in vivo; conditions: 10 mg/kg oral gavage daily
Experimental: (§2) FIG. 3A: The numbers of neurons (identified by the expression of NeuN; green color) and the level of mutant huntingtin (red color) in the striatum of the mice were analyzed by confocal microscope. Nuclei were stained with Hoechst (blue color).
(§3) The method was according to the previous report. In brief, brain sections were incubated overnight with anti-lba-I polyclonal antibody (1:500), anti-NeuN polyclonal antibody (1:500), anti-NLRP3 monoclonal antibody (1:200) or anti-EM48 monoclonal antibody (1:500) in PBS containing 5% normal goat serum at 4° C. and then incubated with the corresponding secondary antibody for 2 h at room temperature. Nuclei were stained with Hoechst 33258. Slides were mounted and analyzed with a laser confocal microscope.
The present example further investigates the effect of Antcin H in the neuronal death of R6/2 mice brains by immunofluorescence staining. […] R6/2 mice or WT mice were treated with AH (10 mg/kg of body weight) or vehicle by oral gavage daily starting from the age of 7 weeks to the age of 12 weeks. WT-Vehicle: n=6; WT-AH: n=6; R6/2-vehicle: n=6; R6/2-AH: n=6. The data are presented as the mean±SEM. Label “a” in chart means p<0.05, between WT and R6/2 mice. Label “b” in chart means p<0.05 vs. vehicle-treated R6/2 mice.

mutant huntingtin (mHtt) = assay: mHtt aggregation in striatum of R6/2 mice (confocal microscope, filter retardation assay); format: in vivo; conditions: 10 mg/kg oral gavage daily, age 7 to 12 weeks, confocal intensity and filter retardation assay
Experimental: as §2
Brain tissues will be suspended and homogenized in ice-cold RIPA buffer (50 mM Tris-HCl, 0.25% sodium deoxycholate, 1% Triton X-100, 150 mM NaCl, 1 mM phenylmethylsulfonyl fluoride, 1 mM Na3VO4, 0.5 mg/mL aprotinin, 0.1 mM leupeptin, and 4 mM pepstatin), mixed with 2% SDS, and applied to OE66 membrane filters ([…]; Whatman Schleicher and Schuell, Middlesex, UK) through a slot-blot manifold (Bio-Rad, Irvine, CA, USA). The blots will be blocked with 5% skim milk in PBS and incubated overnight with an anti-EM48 antibody (1:500; Millipore Bioscience Research Reagents, Temecula, CA, USA) at 4° C., followed by incubation with the corresponding secondary antibody for 1 h at RT. The immunoreactive bands will be detected by ECL (Pierce, Rockford, IL, USA) and recorded using Kodak XAR-5 film.
The method was according to the previous report. […] Slides were mounted and analyzed with a laser confocal microscope. […]

activated microglia = assay: lba-1 immunofluorescence staining for activated microglia in striatum of R6/2 mice; format: in vivo; conditions: 10 mg/kg oral gavage daily, age 7 to 12 weeks, vs vehicle-treated R6/2 mice
Experimental: (§4) FIG. 4A: The numbers of activated microglia in the striatum were identified by lba1 staining (green color), and the numbers of NLRP3 positive cells in the striatum were identified by NLRP3 staining (red color). Nuclei were stained with Hoechst (blue color).
as §3
(§5) HD commonly associated with inflammation in nervous system and activated microglia. […] FIG. 4 show Antcin H reduced NLRP3 expression in microglia of R6/2 mice. R6/2 mice or WT mice were treated with AH (10 mg/kg of body weight) or vehicle by oral gavage daily starting from the age of 7 weeks to the age of 12 weeks. WT-Vehicle: n=6; WT-AH: n=6; R6/2-vehicle: n=6; R6/2-AH: n=6. The data are presented as the mean±SEM. Label “a” in chart means p<0.05, between WT and R6/2 mice. Label “b” in chart means p<0.05 vs. vehicle-treated R6/2 mice.

NLRP3 = NLRP3 immunofluorescence staining in striatum of R6/2 mice; format: in vivo; conditions: 10 mg/kg oral gavage daily, age 7 to 12 weeks, vs vehicle-treated R6/2 mice
Experimental: as §4, §3, §5

[5] = test system: NLRP3 inflammasome in BV2 microglia; assay: IL-1β ELISA in LPS-primed, ATP-activated BV2 microglia; format: cell-based; conditions: 1 μg/ml LPS 5 h, 1 or 5 μM Antcin H 0.5 h, 1 mM ATP 24 h
Experimental: (§6) BV2 microglia were treated with or without 1 μg/ml LPS for 5 h, followed by treated with or without 1 or 5 μM Antcin H for 0.5 h. Cells were then activated by 1 mM ATP for 24 h. The IL-1β levels in the supernatants were measured by ELISA, and the levels of iNOS and NLRP3 in the cell lysates were measured by Western blotting. J774A.1 macrophages were treated with or without 1 μg/ml LPS for 5 h, followed by treated with or without Antcin H for 0.5 h. Cells were then activated by 5 mM ATP for 0.5 h. The IL-1β levels in the supernatants were measured by ELISA.
(§7) Microglia are macrophage-like immune cells of the central nervous system. […] (Subhramanyam et al., 2019). In addition, overexpressed IL-1β, the end-product of the NLRP3 inflammasome, plays important roles in the development of many diseases including neurodegenerative diseases (Siew et al., 2019). NLRP3 inflammasome composed of NLRP3, ASC and caspase-1 and controls the maturation and release of IL-1β. NLRP3 inflammasome can be activated by medical relevant stimuli such as ATP from damage tissues and amyloid-β of Alzheimer's disease (Guo et al., 2015). […] BV2 microglia were treated with or without 1 μg/ml LPS for 5 h, followed by treated with or without 1 or 5 μM Antcin H for 0.5 h. Cells were then activated by 1 mM ATP for 24 h. The data are presented as the mean±SEM from three independent experiments. […]

BV2 microglia = assay: iNOS and NLRP3 Western blotting in LPS and ATP activated BV2 microglia; format: cell-based; conditions: 1 μg/ml LPS 5 h, 1 or 5 μM Antcin H 0.5 h, 1 mM ATP 24 h
Experimental: as §6, §7

[6] = test system: NLRP3 inflammasome in J774A.1 macrophages; assay: IL-1β ELISA in LPS-primed, ATP-activated J774A.1 macrophages; format: cell-based; conditions: 1 μg/ml LPS 5 h, Antcin H 0.5 h, 5 mM ATP 0.5 h
Experimental: (§8) FIG. 6A: J774A.1 macrophages were treated with or without 1 μg/ml LPS for 5 h, followed by treated with or without Antcin H for 0.5 h. Cells were then activated by 5 mM ATP for 0.5 h; FIG. 6B: J774A.1 macrophages were treated with or without 1 μg/ml LPS for 5 h, followed by treated with or without 50 μM Antcin H for 0.5 h. Cells were then activated by 5 mM ATP for 0-60 min.
as §6

J774A.1 macrophages = assay: ATP-induced intracellular ROS (CM-H2DCFDA) in LPS-primed J774A.1 macrophages; format: cell-based; conditions: 1 μg/ml LPS 5 h, 50 μM Antcin H 0.5 h, 5 mM ATP 0-60 min
Experimental: as §8
STHdh^Q7 and STHdh^Q109 cells were treated with 5 or 10 μM Antcin H or vehicle (DMSO) in the presence of 10 μM intracellular ROS indicator fluorescent probe CM-H2DCFDA (Molecular Probes, Inc., Eugene, Oregon, USA) for 1 h. Intracellular ROS (Reactive Oxygen Species) levels were measured by detecting the fluorescence intensity (Excitation/Emission: 488 nm/510 nm) using a fluorescence plate reader (Fluoroskan Ascent; Thermo Electron Corporation, Woburn, MA, USA). J774A.1 macrophages were treated with or without 1 μg/ml LPS for 5 h, followed by treated with or without 50 μM Antcin H for 0.5 h. […] The levels of intracellular ROS were measured by CM-H2DCFDA staining and detected by a fluorescence plate reader.
In addition, ROS is one of the crucial elements for NLRP3 inflammasome activation (Tschopp and Schroder, 2010). […] The levels of intracellular ROS were measured by CM-H2DCFDA staining and detected at an excitation wavelength of 488 nm and an emission wavelength of 510 nm on a […]. […]

[7] = age 7 to 12 weeks, vs vehicle-treated R6/2 mice

C=C(CCC(=C)[C@H]1CCC2C3=C(C(=O)[C@H](O)[C@@]21C)[C@@]1(C)CC[C@@H](O)[C@@H](C)C1CC3=O)C(C)C(=O)O (some centres unmarked) [Antcin H]
cell survival ratio (CCK-8 assay) (STHdh^Q109 cells [1]; 5 μM Antcin H): higher survival ratio then vehicle-treated cells
cell survival ratio (CCK-8 assay) (STHdh^Q109 cells [1]; 10 μM Antcin H): higher survival ratio then vehicle-treated cells
intracellular ROS levels (STHdh^Q109 cells [2]): significantly reduced the intracellular ROS levels
rotarod performance (latency to fall) (R6/2 mice [3]; age 7 to 12 weeks, 12 rpm, 2 min): increased latency to fall
body weight (R6/2 mice [3]; [7]): higher weekly weight gain
survival rate (R6/2 mice [3]; at 12 weeks of age): 100%
clasping score (R6/2 mice [3]; at 12 weeks of age, vs vehicle-treated R6/2 mice): lower clasping score
neuronal cells number in the brain (NeuN, confocal microscope) (R6/2 mice [4]; [7]): significant increased
NeuN protein expression in the brain (Western blotting) (R6/2 mice [4]; brain lysates at age of 12 weeks): increasing expression of NeuN protein
mutant huntingtin aggregation in the striatum (mutant huntingtin (mHtt)): reduced the mutant huntingtin aggregation
number of lba-1 positive cells in striatum (activated microglia): decreased
number of NLRP3 positive cells in striatum (NLRP3): significantly reduced the number of NLRP3 positive cells
ATP-induced IL-1β expression (IL-1β levels in the supernatants, ELISA) [5]: reduced ATP-induced IL-1β expression
expression level of NLRP3, Western blotting (BV2 microglia): reduced the expression levels
expression level of inducible nitric oxide synthase (iNOS), Western blotting (BV2 microglia): reduced the expression levels
ATP-induced IL-1β secretion (IL-1β levels in the supernatants, ELISA) [6]: inhibited by Antcin H (FIG. 6A) in a dose-dependent manner
ATP-induced ROS production (J774A.1 macrophages): significantly reduced ATP-induced ROS production

Source: patent US20230364112A1, “Use of Antcin H and Its Derivatives for Treating Central Nervous System Diseases” (ALPS BIOTECH CO., LTD., priority 2020, published 2023)
